{"source": "patent US20100069854A1", "about": "“Elastomeric Devices Containing Chlorhexidine/Fatty Acid Salts Made From Fatty Acids of 12 to 18 Carbons” (priority 2008, published 2010)", "assay": "Rate of release of chlorhexidine/fatty acid salts from coated polyurethane tubes into DI water", "assay_type": "physicochemical", "details": "for Cumulative release of the chlorhexidine/fatty acid salts from the coated polyurethane tubes: 1 cm coated tube in DI water, 37° C.", "description": "A solution of each respective chlorhexidine/fatty acid salt was prepared and used to infuse a sample of elastomeric material. To perform the test, individual samples, 8 cm pieces of polyurethane tube containing a colorant, were surface dip coated in respective solutions of the chlorhexidine/fatty acid salts. The solutions were prepared as follows: 8.6 g of Tecoflex (Noveon, Cleveland, Ohio) was dissolved in 174 g of Tetrahydrofuran and methanol. 5.88 g of chlorhexidine acetate, chlorhexidine laurate, chlorhexidine myristate, chlorhexidine palmitate and chlorhexidine stearate were individually dissolved into the polymer-solvent mixture. The samples were immersed into the solvent-polymer-salt mixture and then dried at room temperature, evaporating the solvent. A polymeric coating was produced on the surface of the tubes. The amounts of chlorhexidine/fatty acid salt adhered per cm of the tube was measured (Table 2) by exhaustively extracting the salt and measuring UV absorbance at 253 nm relative to controls: For each of the samples, the rate of release of chlorhexidine/fatty acid salts into an aqueous solution was determined. To perform the rate of release test, 1 cm from each of the coated polyurethane tubes, were submerged in DeIonized (DI) water and incubated at 37° C. for a period of 28 days to determine the rate of release of the salts from the respective 1 cm samples of coated polyurethane tubing. The water was collected and replaced with fresh water after approximately 2 hours. The water was again collected and replaced with fresh water after the first day and every seven days thereafter. The amount of chlorhexidine/fatty acid salt in the collected water was measured with an Agilent 8453 UV-Vis Diode Array Detector with a manual setup using a cuvette w/path length of 1 cm. Chlorhexidine absorbance was read at 253 nm and concentration was calculated via a calibration curve developed using standards of 1, 5, 10, 20, 30, 35, and 40 μg/mL chlorhexidine acetate in DI Water. The percentage of chlorhexidine/fatty acid salt released from the sample into an aqueous media (percent release) was calculated according to the following equation: Percent release=(cumulative release at that time period/initial content)*100."}
{"molecule": "N=C(NCCCCCCNC(=N)NC(=N)Nc1ccc(Cl)cc1)NC(=N)Nc1ccc(Cl)cc1.Nc1ccc(P(=O)(O)O)cc1.Nc1ccc(P(=O)(O)O)cc1", "note": "[Chlorhexidine Palmitate, chlorhexidine dipalmitate]", "values": [{"measurement": "Cumulative release of the chlorhexidine/fatty acid salts from the coated polyurethane tubes", "setting": "Day 1", "result": 28, "unit": "g"}, {"measurement": "Cumulative release of the chlorhexidine/fatty acid salts from the coated polyurethane tubes", "setting": "Day 7", "result": 79, "unit": "g"}, {"measurement": "Cumulative release of the chlorhexidine/fatty acid salts from the coated polyurethane tubes", "setting": "Day 14", "result": 112, "unit": "g"}, {"measurement": "Cumulative release of the chlorhexidine/fatty acid salts from the coated polyurethane tubes", "setting": "Day 21", "result": 132, "unit": "g"}, {"measurement": "Cumulative release of the chlorhexidine/fatty acid salts from the coated polyurethane tubes", "setting": "Day 28", "result": 140, "unit": "g"}, {"measurement": "Release from the coated sample over the test (in words)", "setting": "FIG. 1, 28 days in DI water", "result": "continually released at an appreciable rate throughout the duration of the test"}, {"measurement": "Amount released from the coated sample over the 7 day period", "setting": "from 21 to 28 days", "result": 8, "unit": "µg"}]}
